Experimental data: ChEMBL document CHEMBL4342442, “Usnic Acid Enaminone-Coupled 1,2,3-Triazoles as Antibacterial and Antitubercular Agents” (J Nat Prod, 2020)
Calls of active or inactive are those of the source. The calls are words filed in the database; no cut-off is given here.

Key:
Type in all cases: functional
[1] = tested on: Mycobacterium tuberculosis; assay: Antitubercular activity against Mycobacterium tuberculosis H37Rv assessed as reduction in microbial growth after 7 days by alamar blue assay; conditions: 168 h
Pseudomonas aeruginosa [2] = assay: Antibacterial activity against Pseudomonas aeruginosa MTCC 741 assessed as diameter of zone of inhibition at 200 ug/ml after 24 hrs by agar well diffusion method
Bacillus subtilis [3] = assay: Antibacterial activity against Bacillus subtilis MTCC 441 assessed as reduction in microbial growth after 24 hrs by CLSI based microdilution method; conditions: MTCC 441, 24 h
Staphylococcus aureus [4] = assay: Antibacterial activity against Staphylococcus aureus MTCC 96 assessed as diameter of zone of inhibition at 200 ug/ml after 24 hrs by agar well diffusion method
Klebsiella pneumoniae [5] = assay: Antibacterial activity against Klebsiella pneumoniae MTCC 618 assessed as reduction in microbial growth after 24 hrs by CLSI based microdilution method; conditions: MTCC 618, 24 h
Staphylococcus aureus [6] = assay: Antibacterial activity against Staphylococcus aureus MTCC 96 assessed as reduction in microbial growth after 24 hrs by CLSI based microdilution method; conditions: MTCC 96, 24 h
Klebsiella pneumoniae [7] = assay: Antibacterial activity against Klebsiella pneumoniae MTCC 618 assessed as diameter of zone of inhibition at 200 ug/ml after 24 hrs by agar well diffusion method
Pseudomonas aeruginosa [8] = assay: Antibacterial activity against Pseudomonas aeruginosa MTCC 741 assessed as reduction in microbial growth after 24 hrs by CLSI based microdilution method; conditions: MTCC 741, 24 h
[9] = tested on: Staphylococcus epidermidis; assay: Antibacterial activity against Staphylococcus epidermidis assessed as reduction in microbial growth after 24 hrs by CLSI based microdilution method
Escherichia coli [10] = assay: Antibacterial activity against Escherichia coli MTCC 443 assessed as reduction in microbial growth after 24 hrs by CLSI based microdilution method; conditions: MTCC 443, 24 h
[11] = tested on: Staphylococcus epidermidis; assay: Antibacterial activity against Staphylococcus epidermidis assessed as diameter of zone of inhibition at 200 ug/ml after 24 hrs by agar well diffusion method
Bacillus subtilis [12] = assay: Antibacterial activity against Bacillus subtilis MTCC 441 assessed as diameter of zone of inhibition at 200 ug/ml after 24 hrs by agar well diffusion method
Escherichia coli [13] = assay: Antibacterial activity against Escherichia coli MTCC 443 assessed as diameter of zone of inhibition at 200 ug/ml after 24 hrs by agar well diffusion method
[14] = tested on: Mycobacterium tuberculosis; assay: Antitubercular activity against Mycobacterium tuberculosis H37Rv assessed as log reduction in bacterial population at 10 ug/ml under starvation condition after 7 days by MPN assay

CC(=O)c1c(O)c(C)c(O)c2c1OC1=CC(=O)/C(=C(/C)NCc3cn(CC(=O)c4c5ccccc5cc5ccccc45)nn3)C(=O)C12C (stereo not given)
MIC [1]: 9.7 µM

CC(=O)c1c(O)c(C)c(O)c2c1OC1=CC(=O)/C(=C(/C)NCc3cn(CC(=O)c4ccc(C(F)(F)F)cc4)nn3)C(=O)C12C (stereo not given)
MIC [1]: 41 µM

CC1(C)S[C@@H]2[C@H](NC(=O)Cc3ccccc3)C(=O)N2[C@H]1C(=O)O [PENICILLIN G]
zone of inhibition at 200 µg/mL (Pseudomonas aeruginosa [2]; MTCC 741, 24 h, read-out: DIZ): 23 mm
MIC (Bacillus subtilis [3]): 3.5 µM
zone of inhibition at 200 µg/mL (Staphylococcus aureus [4]; MTCC 96, 24 h, read-out: DIZ): 28 mm
MIC (Klebsiella pneumoniae [5]): 27.8 µM
MIC (Staphylococcus aureus [6]): 3.5 µM
zone of inhibition at 200 µg/mL (Klebsiella pneumoniae [7]; MTCC 618, 24 h, read-out: DIZ): 25 mm
MIC (Pseudomonas aeruginosa [8]): 27.8 µM
MIC [9]: 7 µM
MIC (Escherichia coli [10]): 27.8 µM
zone of inhibition at 200 µg/mL ([11]; read-out: DIZ): 26 mm
zone of inhibition at 200 µg/mL (Bacillus subtilis [12]; MTCC 441, 24 h, read-out: DIZ): 28 mm
zone of inhibition at 200 µg/mL (Escherichia coli [13]; MTCC 443, 24 h, read-out: DIZ): 24 mm

CC(=O)c1c(O)c(C)c(O)c2c1OC1=CC(=O)/C(=C(/C)NCc3cn(CC(=O)c4ccc(-c5ccccc5)cc4)nn3)C(=O)C12C (stereo not given)
MIC [1]: 48.2 µM

CC(=O)c1c(O)c(C)c(O)c2c1OC1=CC(=O)/C(=C(/C)NCc3cn(CC(=O)c4cccc5ccccc45)nn3)C(=O)C12C (stereo not given)
MIC [1]: 42.2 µM

CC(=O)c1c(O)c(C)c(O)c2c1OC1=CC(=O)/C(=C(/C)NCc3cn(CC(=O)c4ccc([N+](=O)[O-])cc4)nn3)C(=O)C12C (stereo not given)
MIC [1]: 42.6 µM

CC(=O)c1c(O)c(C)c(O)c2c1OC1=CC(=O)/C(=C(/C)NCc3cn(CC(=O)N4CCN(c5ccc(C(F)(F)F)cc5)CC4)nn3)C(=O)C12C (stereo not given)
MIC [1]: 36 µM

CC(=O)c1c(O)c(C)c(O)c2c1OC1=CC(=O)/C(=C(/C)NCc3cn(CC(=O)c4ccc(Cl)cc4)nn3)C(=O)C12C (stereo not given)
MIC [1]: 10.8 µM

O=C(O)c1cn(C2CC2)c2cc(N3CCNCC3)c(F)cc2c1=O [CIPROFLOXACIN]
FC [14]: 1.8

NNC(=O)c1ccncc1 [ISONIAZID]
MIC [1]: 2.9 µM
FC [14]: 1.5

CC(=O)c1c(O)c(C)c(O)c2c1OC1=CC(=O)/C(=C(/C)NCc3cn(CC(=O)N4CCN(c5ccccc5Cl)CC4)nn3)C(=O)C12C (stereo not given)
MIC [1]: 37.8 µM
MIC (Bacillus subtilis [3]): 302 µM
MIC (Klebsiella pneumoniae [5]): > 350 µM
MIC (Staphylococcus aureus [6]): > 350 µM
MIC (Pseudomonas aeruginosa [8]): > 350 µM
MIC [9]: > 350 µM
MIC (Escherichia coli [10]): > 350 µM

CC(=O)c1c(O)c(C)c(O)c2c1OC1=CC(=O)/C(=C(/C)NCc3cn(CC(=O)c4nccs4)nn3)C(=O)C12C (stereo not given)
MIC [1]: 45.5 µM

CC(=O)c1c(O)c(C)c(O)c2c1OC1=CC(=O)/C(=C(/C)NCc3cn(CC(=O)N4CCN(c5ccccc5)CC4)nn3)C(=O)C12C (stereo not given)
MIC [1]: 39.9 µM

CC(=O)c1c(O)c(C)c(O)c2c1OC1=CC(=O)/C(=C(/C)NCc3cn(CC(=O)N4CCN(C(=O)OC(C)(C)C)CC4)nn3)C(=O)C12C (stereo not given)
MIC [1]: 38.4 µM

CC(=O)c1c(O)c(C)c(O)c2c1OC1=CC(=O)/C(=C(/C)NCc3cn(CC(=O)N4CCSCC4)nn3)C(=O)C12C (stereo not given)
diameter of the inhibition zone (DIZ) (Pseudomonas aeruginosa [2]): inactive
MIC [1]: 44 µM
MIC (Bacillus subtilis [3]): > 350 µM
diameter of the inhibition zone (DIZ) (Staphylococcus aureus [4]): inactive
MIC (Klebsiella pneumoniae [5]): > 350 µM
MIC (Staphylococcus aureus [6]): > 350 µM
diameter of the inhibition zone (DIZ) (Klebsiella pneumoniae [7]): inactive
MIC (Pseudomonas aeruginosa [8]): > 350 µM
MIC [9]: > 350 µM
MIC (Escherichia coli [10]): > 350 µM
diameter of the inhibition zone (DIZ) [11]: inactive
diameter of the inhibition zone (DIZ) (Bacillus subtilis [12]): inactive
diameter of the inhibition zone (DIZ) (Escherichia coli [13]): inactive

CO[C@H]1/C=C/O[C@@]2(C)Oc3c(C)c(O)c4c(O)c(c(/C=N/N5CCN(C)CC5)c(O)c4c3C2=O)NC(=O)/C(C)=C\C=C\[C@H](C)[C@H](O)[C@@H](C)[C@@H](O)[C@@H](C)[C@H](OC(C)=O)[C@@H]1C [RIFAMPIN]
MIC [1]: 0.6 µM
FC [14]: 1.8

CC(=O)c1c(O)c(C)c(O)c2c1OC1=CC(=O)/C(=C(/C)NCc3cn(CC(=O)N4CCN(c5ccccn5)CC4)nn3)C(=O)C12C (stereo not given)
MIC [1]: 39.8 µM

CC(=O)c1c(O)c(C)c(O)c2c1OC1=CC(=O)/C(=C(/C)NCc3cn(CC(=O)c4ccc(C#N)cc4)nn3)C(=O)C12C (stereo not given)
MIC [1]: 44.1 µM

CC(=O)c1c(O)c(C)c(O)c2c1OC1=CC(=O)/C(=C(/C)NCc3cn(CC(=O)c4ccc(Cl)c(Cl)c4)nn3)C(=O)C12C (stereo not given)
MIC [1]: 40.9 µM
